Laboratory results: publication PMC9356275, “A quantitative high-throughput screen identifies compounds that lower expression of the SCA2-and ALS-associated gene ATXN2” (The Journal of Biological Chemistry, 2022)
Structures can show the parent of a compound that is named as a salt. Where two headings read alike, the source gives them in different places.

Columns and labels:
Type in all cases: cell-based, human
[1] = tested on: ATXN2-luc; test: MSSR hit retest: ATXN2-luc luciferase assay, average of H2 and S1 cells (1 and 10 uM); details: Homo sapiens; for activity at 1 µM: read-out: H2&S1 ave luc 1uM; for activity at 10 µM: head line r3 10uM; for activity at 10 µM / activity: read-out: H2&S1 ave luc 10uM
Description: (§1) Supplement mmc2.xlsx, sheet "43 annotated compounds"

[2] = tested on: ATXN2-luc; test: MSSR pilot screen: ATXN2-luc luciferase assay (Bright-Glo) in H2 cells, single 10 μM dose; details: for SD from mean (ATXN2-luc, Z-score): H2 cells, single dose (title: 10 μM compound), overnight; for ¦Score/1SD¦: absolute score divided by 1SD (0.891 or 0.9)
[3] = tested on: H2 and S1 cells; test: Paired MTT viability assay, average of H2 and S1 cells (1 and 10 uM); details: Homo sapiens
Description: as §1

[4] = tested on: ATXN2-luc; test: NCATS qHTS (LOPAC pilot, primary and confirmation): ATXN2-luc in S2 cells, 1536-well, Steady-Glo; details: for Curve Class: LOPAC library (1,280 compounds) screening optimization, signed sub-classes (-1.1, -2.2, -3 ...)
Description: We next performed a pilot screen assay to optimize the 1536-well qHTS using S2 cells. […] Cytotoxicity was determined using a multiplexed viability assay (CellTiter-Fluor, a fluorescence-based viability assay using Gly-Phe-7-amino-4-trifluoromethylcoumarin substrate).
CellTiter-Fluor was used to determine compound effect on cell viability, and Steady-Glo was used to measure luciferase in a multiplexed assay.
The primary assay was conducted at the NCATS NIH Chemical Genomics Center laboratory. About 4 μl of S2 cell suspension in phenol red–free DMEM was dispensed into wells of 1536-well assay plates. […] Next, SteadyGlo luciferase substrate detection reagent (3 μl) was added to each well and incubated for an additional 5 min at room temperature. Luminescence was then measured on the ViewLux imager equipped with clear filters using a 2 s exposure. All screening operations were performed on a fully integrated robotic system (Kalypsys) containing one RX-130 and two RX-90 anthropomorphic robotic arms (Stäubli). Vehicle-only plates, with DMSO being pin-transferred to columns 5 to 48, were inserted uniformly at the beginning and the end of each library in order to monitor and record any shifts in assay performance.

[5] = 1 uM compound, average of H2 and S1 cells
[6] = pilot screen at 10 µM compound, H2 cells expressing ATXN2-luc
[7] = 1 uM compound, read-out: H2&S1 ave MTT 1uM
[8] = 10 uM compound, read-out: H2&S1 ave MTT 10uM
[9] = read-out: H2&S1 ave MTT 1uM, 1 uM compound
[10] = read-out: H2&S1 ave MTT 10uM, 10 uM compound
[11] = Homo sapiens, LOPAC library screening optimization, logarithm of AC50 (negative values), read-out: Log AC50 (converted)
[12] = Homo sapiens, LOPAC library screening optimization, read-out: AC50
[13] = LOPAC library screening optimization, logarithm of AC50 (negative values)
[14] = LOPAC library screening optimization, read-out: AC50
[15] = LOPAC library screening optimization, curve-fit parameter

Row | Compound | activity at 1 µM [1, 5] [%] | activity at 10 µM ([1]; average of H2 and S1 cells) [%] | SD from mean (ATXN2-luc, Z-score) [2] [SD] | SD from mean (pilot screen) ([2]; pilot screen) [SD] | SD from mean (pilot screen) [2, 6] | ¦Score/1SD¦ ([2]; pilot screen) | viability at 1 µM [3, 7] [%] | viability at 10 µM [3, 8] [%] | AC50 [4, 11] [µM] | AC50 [4, 12] [µM] | Curve Class [4] | also measured
1 | C[C@@H]1O[C@@H](O[C@H]2CC[C@]3(C=O)[C@H]4CC[C@]5(C)[C@@H](C6=CC(=O)OC6)CC[C@]5(O)[C@@H]4CC[C@]3(O)C2)[C@H](O)[C@H](O)[C@H]1O [CONVALLATOXIN] | 12 | 11 | -3.689 | -3.689 | -3.689 | 4.10 | 62.2 | 70 | – | – | – | –
2 | CO[C@H]1C[C@H](O[C@H]2CC[C@]3(C=O)[C@H]4CC[C@]5(C)[C@@H](C6=CC(=O)OC6)CC[C@]5(O)[C@@H]4CC[C@]3(O)C2)O[C@H](C)[C@H]1O [CYMARIN] | – | – | -4.099 | -4.099 | -4.099 | 4.55 | – | – | – | – | – | activity at 1 µM [1]: 14%; activity [1]: 16%; viability at 1 µM [3, 9]: 54.2%; viability at 10 µM [3, 10]: 59.3%
3 | CC(C)=CCc1c(O)cc2occ(-c3ccc4c(c3)OCO4)c(=O)c2c1O [DERRUBONE] | 11 | 15 | -3.621 | -3.621 | -3.621 | 4.02 | 107 | 101 | – | – | – | –
4 | C[C@H]1O[C@@H](O[C@H]2[C@@H](O)C[C@H](O[C@H]3[C@@H](O)C[C@H](O[C@H]4CC[C@@]5(C)[C@H](CC[C@@H]6[C@@H]5CC[C@]5(C)[C@@H](C7=CC(=O)OC7)CC[C@]65O)C4)O[C@@H]3C)O[C@@H]2C)C[C@H](O)[C@@H]1O [DIGITOXIN] | – | – | -4.100 | -4.100 | -4.100 | 4.56 | – | – | – | – | – | activity at 1 µM [1]: 27%; activity [1]: 19%; viability at 1 µM [3, 9]: 34.3%; viability at 10 µM [3, 10]: 49.1%
5 | CNCCCN1c2ccccc2CCc2ccccc21 [Desipramine hydrochloride] | – | – | – | – | – | – | – | – | 12.6 | 12.6 | -2.2 | Log AC50 [4, 13]: -4.85; AC50 [4, 14]: 14.1 µM
6 | C[C@]12CC[C@H](O)C[C@H]1CC[C@@H]1[C@@H]2CC[C@]2(C)[C@@H](C3=CC(=O)OC3)CC[C@]12O [Digitoxigenin] | 38 | 13 | -3.629 | -3.629 | -3.629 | 4.07 | 81.6 | 74.8 | – | – | – | –
7 | C[C@]12CC[C@H](O)C[C@H]1CC[C@@H]1[C@@H]2C[C@@H](O)[C@]2(C)[C@@H](C3=CC(=O)OC3)CC[C@]12O [Digoxigenin] | 90 | 22 | -3.264 | -3.264 | – | 3.66 | 60.4 | 31.6 | – | – | – | SD from mean (pilot screen) ([2]; pilot screen, H2 cells expressing ATXN2-luc, single dose printed as 10 μM compound): -3.264
8 | CNCCC(Oc1ccc(C(F)(F)F)cc1)c1ccccc1 (stereo not drawn) [Fluoxetine hydrochloride] | – | – | – | – | – | – | – | – | 12.6 | 12.6 | -2.1 | Log AC50 [4, 13]: -4.85; AC50 [4, 14]: 14.1 µM
9 | c1ccc(CN2CCC3(CCCc4ccccc43)CC2)cc1 [L-687,384 hydrochloride] | – | – | – | – | – | – | – | – | 14.1 | 14.1 | -2.2 | Efficacy [4, 15]: -56.3105; Inf Activity [4, 15]: -51.8105
10 | CC(=O)O[C@H]1C[C@H](O[C@H]2[C@@H](O)C[C@H](O[C@H]3[C@@H](O)C[C@H](OC4CC[C@@]5(C)C(CC[C@@H]6[C@@H]5CC[C@]5(C)[C@@H](C7=CC(=O)OC7)[C@@H](O)C[C@]65O)C4)O[C@@H]3C)O[C@@H]2C)O[C@H](C)[C@H]1O[C@@H]1O[C@H](CO)[C@@H](O)[C@H](O)[C@H]1O (stereo partly drawn) [Lanatoside B] | – | – | – | – | – | – | – | – | 1.26 | 1.26 | – | Efficacy [4, 15]: -78.0523; Inf Activity [4, 15]: -90.3741
11 | CNCCC(Oc1ccc(C(F)(F)F)cc1)c1ccccc1.Cl (stereo not drawn) [MLS001076338-01] | – | – | – | – | – | – | – | – | – | – | -3 | Efficacy [4, 15]: -91.3933; Hill Coef [4, 15]: 3.5722; Inf Activity [4, 15]: -89.6057; Zero Activity [4, 15]: 1.7876; Log AC50 [4, 13]: -4.6; AC50 [4, 14]: 25.1 µM; Max Resp ([4]; LOPAC library screening optimization, response at highest tested concentration): -84.8539
